Experimental data taken from patent US7511145B2 (Genelabs Technologies, Inc., priority 2003, dated 2009).

Target: T1, HCV-NS5b (Hepatitis C virus genotype 1b, UniProt Q9WMX2)
T1 construct: (His)6 (C); made in house; host or cells: XL-1 cells (E. coli), IPTG-inducible plasmid, nickel-NTA purification
Experiment: HCV-NS5b enzyme assay (incorporation of radiolabeled UTP)
Assay type: biochemical
Conditions: for inhibition at 100 µM: read-out: % inh@100, enzyme inhibition at compound concentration of 100 uM
Outline: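 His6-tagged NS5b lacking the C-terminal 21 residues, expressed in XL-1 and Ni-NTA purified. Reaction at pH 7.5 with 5 mM MgCl2, 10 μM each NTP including [3H]-UTP and biotinylated HCV heteropolymeric template, 2 h at 37° C; SPA read-out; % inhibition at 100 and 33 uM versus no-compound control, background subtracted.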

[1] = enzyme inhibition at compound concentration of 33 uM

| SMILES | inhibition at 33 µM [1] [%] | inhibition at 100 µM [%] | % inh@33 [1] [%] | % inh@100 (enzyme inhibition at compound concentration of 100 uM) [%] |
| --- | --- | --- | --- | --- |
| O=C(O)c1ccc2cc(NC(=O)c3ccc4c(c3)nc(-c3ccc5nc(-c6ccccc6)cnc5c3)n4C3CCCCC3)ccc2c1 [Compound 526, 6-{[1-Cyclohexyl-2-(2-phenyl-quinoxalin-6-yl)-1H-benzoimidazole-5-carbonyl]-amino}-naphthalene-2-carboxylic acid] | 96.8 | 99 | – | – |
| O=C(O)c1ccc2c(c1)nc(-c1ccc3nc(-c4ccccc4)c(-c4ccccc4)nc3c1)n2C1CCCCC1 [Compound 406, 1-Cyclohexyl-2-(2,3-diphenylquinoxalin-6-yl)-1H-benzimidazole-5-carboxylic acid] | 97.3 | 98.1 | – | – |
| O=C(O)[C@@H]1C[C@@H](O)CN1C(=O)c1ccc2c(c1)nc(-c1ccc3nc(-c4ccccc4)cnc3c1)n2C1CCCCC1 [Compound 248, 1-[1-Cyclohexyl-2-(2-phenyl-quinoxalin-6-yl)-1H-benzoimidazole-5-carbonyl]-4-hydroxy-pyrrolidine-2-carboxylic acid] | 47.4 | 86.8 | – | – |
| O=C(O)c1ccc2c(c1)nc(-c1ccc3nc(-c4cnccn4)ccc3c1)n2C1CCCCC1 [Compound 442, 1-cyclohexyl-2-(2-pyrazin-2-yl-quinolin-6-yl)-1H-benzoimidazole-5-carboxylic acid] | 92.5 | 98.2 | – | – |
| Cc1cc(-c2nc3cc(C(=O)O)ccc3n2C2CCCCC2)cc2ccc(-c3ccccc3-c3ccccc3)nc12 [Compound 379, 2-(2-Biphen-2-yl-8-methyl-quinolin-6-yl)-1-cyclohexyl-1H-benzoimidazole-5-carboxylic acid] | 93.3 | 97.8 | – | – |
| Nc1cc(-c2ccccc2)sc1-c1ccc2cc(-c3nc4cc(C(=O)O)ccc4n3C3CCCCC3)ccc2n1 [Compound 480, 2-[2-(3-amino-5-phenyl-thiophen-2-yl)-quinolin-6-yl]-1-cyclohexyl-1H-benzoimidazole-5-carboxylic acid] | 101 | 104 | – | – |
| COCCOc1ccc(-c2ccc(Cl)cc2)c(-c2ccc3cc(-c4nc5cc(C(=O)O)ccc5n4C4CCCCC4)ccc3n2)c1 [Compound 475, 2-{2-[4′-Chloro-4-(2-methoxy-ethoxy)-biphen-2-yl]-quinolin-6-yl}-1-cyclohexyl-1H-benzoimidazole-5-carboxylic acid] | 97.5 | 95.9 | – | – |
| O=C(O)c1ccc2c(c1)nc(-c1ccc3nc(-c4cc(C(=O)N5CCCC5)ccc4-c4ccc([N+](=O)[O-])cc4)ccc3c1)n2C1CCCCC1 [Compound 435, 1-cyclohexyl-2-{2-[4′-nitro-4-(pyrrolidine-1-carbonyl)biphen-2-yl]quinolin-6-yl}-1H-benzimidazole-5-carboxylic acid] | 102 | 101 | – | – |
| O=C(O)c1ccc2c(c1)nc(-c1ccc3nc(CCn4cccn4)ccc3c1)n2C1CCCCC1 [Compound 476, 1-cyclohexyl-2-[2-(2-pyrazol-1-yl-ethyl)-quinolin-6-yl]-1H-benzoimidazole-5-carboxylic acid] | 97.3 | 97.1 | – | – |
| Cc1cc(-c2ccc3cc(-c4nc5cc(C(=O)O)ccc5n4C4CCCCC4)ccc3n2)c(O)c([N+](=O)[O-])c1 [Compound 418, 1-cyclohexyl-2-[2-(2-hydroxy-5-methyl-3-nitro-phenyl)-quinolin-6-yl]-1H-benzoimidazole-5-carboxylic acid] | 104 | 103 | – | – |
| CC(C)C[C@H](NC(=O)c1ccc2c(c1)nc(-c1ccc3nc(-c4ccccc4)cnc3c1)n2C1CCCCC1)C(=O)O [Compound 513, 2-{[1-Cyclohexyl-2-(2-phenyl-quinoxalin-6-yl)-1H-benzoimidazole-5-carbonyl]-amino}-4-methyl-pentanoic acid] | 93.2 | 95.9 | – | – |
| O=C(O)c1ccc2c(c1)nc(-c1ccc3nc(-c4ccccc4-c4ccc(Cl)cc4)ccc3c1)n2C1CCCCC1 [Compound 387, 2-[2-(4′-Chloro-biphen-2-yl)-quinolin-6-yl]-1-cyclohexyl-1H-benzoimidazole-5-carboxylic acid] | 99 | 98.7 | – | – |
| O=C(O)c1ccc2c(c1)nc(-c1ccc3nc(-c4ccccc4)c(-c4ccccc4)cc3c1)n2C1CCCCC1 [Compound 386, 1-cyclohexyl-2-(2,3-diphenyl-quinolin-6-yl)-1H-benzoimidazole-5-carboxylic acid] | 100 | 99.9 | – | – |
| COc1ccc(-c2ccc(Cl)cc2)c(-c2ccc3cc(-c4nc5cc(C(=O)O)ccc5n4C(C)C)ccc3n2)c1 [Compound 527, 2-[2-(4′-chloro-4-methoxy-biphen-2-yl)-quinolin-6-yl]-1-isopropyl-1H-benzoimidazole-5-carboxylic acid] | 99.4 | 101 | – | – |
| COc1ccc(-c2ccc(CN)cc2)c(-c2ccc3cc(-c4nc5cc(C(=O)O)ccc5n4C4CCCCC4)ccc3n2)c1 [Compound 384, 2-[2-(4′-aminomethyl-4-methoxy-biphen-2-yl)-quinolin-6-yl]-1-cyclohexyl-1H-benzoimidazole-5-carboxylic acid] | 95.5 | 99.3 | – | – |
| Cc1cc(-c2ccc3cc(-c4nc5cc(C(=O)O)ccc5n4C4CCCCC4)ccc3n2)c(-c2ccccc2)s1 [Compound 472, 1-cyclohexyl-2-[2-(5-methyl-2-phenyl-thiophen-3-yl)-quinolin-6-yl]-1H-benzoimidazole-5-carboxylic acid] | 97.1 | 98.1 | – | – |
| O=C(c1ccc(-c2ccc(Cl)cc2)c(-c2ccc3cc(-c4nc5ccccc5n4C4CCCCC4)ccc3n2)c1)N1CCCC1 [Compound 540] | – | – | 91.13 | 95.05 |
| COc1ccc2occ(-c3ccc4cc(-c5nc6cc(C(=O)O)ccc6n5C5CCCCC5)ccc4n3)c2c1 [Compound 493, 1-cyclohexyl-2-[2-(5-methoxy-benzofuran-3-yl)-quinolin-6-yl]-1H-benzoimidazole-5-carboxylic acid] | 101 | 100 | – | – |
| O=C(O)c1ccc2c(c1)nc(-c1ccc3nc(C(c4ccccc4)c4ccccc4)ccc3c1)n2C1CCCCC1 [Compound 457, 2-(2-benzhydryl-quinolin-6-yl)-1-cyclohexyl-1H-benzoimidazole-5-carboxylic acid] | 98.2 | 98.3 | – | – |
| CC(C)(C)OC(=O)NCCNc1cc(-c2ccccc2)nc2ccc(-c3nc4cc(C(=O)O)ccc4n3C3CCCCC3)cc12 [Compound 399, 2-[4-(2-tert-butoxycarbonylamino-ethylamino)-2-phenyl-quinolin-6-yl]-1-cyclohexyl-1H-benzoimidazole-5-carboxylic acid] | 95.6 | 102 | – | – |
| O=C(O)c1ccc2c(c1)nc(-c1ccc3nc(-c4ccccc4)cc(Nc4ccc(Cl)cc4)c3c1)n2C1CCCCC1 [Compound 380, 2-[4-(4-chloro-phenylamino)-2-phenyl-quinolin-6-yl]-1-cyclohexyl-1H-benzoimidazole-5-carboxylic acid] | 97.6 | 101 | – | – |
| NC(=O)c1cc(-c2ccc3cc(-c4nc5cc(C(=O)O)ccc5n4C4CCCCC4)ccc3n2)ccc1O [Compound 374, 2-[2-(3-carbamoyl-4-hydroxy-phenyl)-quinolin-6-yl]-1-cyclohexyl-1H-benzoimidazole-5-carboxylic acid] | 97.6 | 98.3 | – | – |
